In patent US12564589B2, “Methods for treating cancer, reducing side effects of cancer treatment, and preventing the recurrence of cancer” (Florida State University Research Foundation, Inc., priority 2024, dated 2026):

Experiments:
H3.3KD cells = assay: Viability by flow cytometry (Live/Dead staining) after DNA damaging agents; type: cell-based, human
Protocol: FIGS. 1A-1G show replacement histone variant H3.3 is rapidly recruited to DNA damage sites and cells deficient in H3.3 accumulate endogenous damage, while also being hypersensitive to DNA damaging agents. FIG. 1A: Histone variant H3.3 is rapidly recruited to sites of laser induced DNA damage in living cells. HCT116 human colon carcinoma cells were transiently co-transfected with expression constructs for H3.3-mEmerald and RFP-PCNA. […] Percent recruitment was calculated by dividing the number of cells recruiting H3.3 by the number of cells recruiting PCNA in the same cells. n=number of cells analyzed. […] The percentage knockdown for each clone shown at the bottom of the lanes was quantitated by measuring fluorescence intensity of the H3.3 band relative to the signal from the H4 band on a Li-Cor Odyssey imager. […] The presence of endogenous damage in H3.3KD and control LUC cells was determined by Western blotting of whole cell extracts using the indicated antibodies. […] 48 hours after MMS treatment, the viability of the cells was scored by flow cytometry using the violet fluorescent Live/Dead cell staining kit (Invitrogen) following the manufacturer's instructions. […] Significant differences between treatments are indicated by p values determined using a t-test. […]

[1] = tested on: Budding yeast strains carrying H3G34R mutant; assay: Yeast viability by colony enumeration after genotoxic agents; type: cell-based; conditions: 90 minutes treatment
Protocol: FIGS. 8A-8G show deficiency of H3.3 in cells from multiple species results in accumulation of genomic instability and endogenous DNA damage, as well as hypersensitivity to DNA damaging agents. (FIG. 8A) Enhanced rate of micronuclei formation in H3.3KD cells. Micronuclei score was determined as described previously from 1000 LUC and H3.3KD cells. The difference between LUC and H3.3 was trending towards significance (p=0.12). (FIG. 8B) Increased incidence of lagging chromosomes during mitosis in H3.3KD cells. Quantitation of lagging chromosomes from 100 anaphases in LUC and H3.3KD cells is shown. (FIG. 8C) Flies deficient in H3.3 accumulate endogenous DNA damage. Western blot showing the levels of γH2A.v (the fly homolog of mammalian γH2A.X) in adult flies of the indicated genotypes: wild-type (WT; Oregon-R), heterozygous (het, with just one H3.3 allele) and rescue (res, which completely lacks H3.3, but its sterility is rescued by an extra copy of H3.2 driven by the H3.3B promoter). A sample from flies treated with 10 Gy IR is included as a positive control for γH2A.v signal. […] 100 third instar Drosophila larvae from WT and heterozygous (H3.3 Het) genotype carrying just one out of four alleles of H3.3 were exposed to either IR or ultra violet (UV) light and their development into adult flies was monitored for over two weeks. […] Viable flies remaining were scored daily for a week. […]

Structure (SMILES) | sensitivity of H3.3 KD cells compared to control LUC cells (H3.3KD cells; 0.5 mM Mimo) | sensitivity of H3G34R yeast compared to wild-type [1] | sensitivity of H3.3 KD cells compared to control LUC cells (H3.3KD cells; 0.0175% MMS for 2 hours, viability 48 hours after)
NC(Cn1ccc(=O)c(O)c1)C(=O)O (stereo not drawn) [Mimosine] | very sensitive | – | –
COS(C)(=O)=O [MMS, methyl methane sulfonate] | – | hypersensitive | very sensitive
